The target of assay [1] is Peroxisome proliferator-activated receptor gamma/Nuclear receptor coactivator 3 (Homo sapiens, UniProt P37231). In words: TR-FRET dose response biochemical High Throughput Screening assay for agonists of the steroid receptor coactivator 3 (SRC-3) recruitment by the peroxisome proliferator-activated receptor gamma (PPAR gamma): non-selective agonists. [Related pubchem assays: 1301 (Confirmation screen.), 1048 (Primary screen.)]. Type of assay: functional.

Another assay has as its target T1, Estrogen receptor (Homo sapiens, UniProt P03372).
T1 sequence (P03372 whole entry): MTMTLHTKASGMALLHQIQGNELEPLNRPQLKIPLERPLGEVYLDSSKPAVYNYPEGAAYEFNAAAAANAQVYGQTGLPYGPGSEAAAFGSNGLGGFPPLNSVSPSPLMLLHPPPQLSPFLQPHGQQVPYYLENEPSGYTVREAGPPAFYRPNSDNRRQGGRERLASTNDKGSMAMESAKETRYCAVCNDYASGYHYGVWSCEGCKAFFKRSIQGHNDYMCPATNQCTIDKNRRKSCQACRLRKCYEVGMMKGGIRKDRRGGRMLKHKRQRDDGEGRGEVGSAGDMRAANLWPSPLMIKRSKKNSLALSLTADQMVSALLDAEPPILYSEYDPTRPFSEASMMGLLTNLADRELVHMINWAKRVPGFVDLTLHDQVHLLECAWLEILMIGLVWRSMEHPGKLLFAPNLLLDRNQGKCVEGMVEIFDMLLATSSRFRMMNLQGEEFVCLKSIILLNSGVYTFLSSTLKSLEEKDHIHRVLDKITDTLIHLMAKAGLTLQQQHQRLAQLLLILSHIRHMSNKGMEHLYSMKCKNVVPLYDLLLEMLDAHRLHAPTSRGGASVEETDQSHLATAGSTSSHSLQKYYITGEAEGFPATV

Assay [2] has as its target Peroxisome proliferator-activated receptor gamma/Nuclear receptor coactivator 2 (Homo sapiens, UniProt P37231). The assay can be described thus: TR-FRET dose response biochemical High Throughput Screening assay for agonists of the steroid receptor coactivator 2 (SRC-2) recruitment by the peroxisome proliferator-activated receptor gamma (PPAR gamma): non-selective agonists. [Related pubchem assays: 1297, 1032 ]. It is filed as functional.

The next assay addresses Genome polyprotein (Hepatitis C virus, UniProt Q2Q167). The assay can be described thus: disruption of hepatitis C core self-association – biochemical, TR-FRET, dose response (AID 2159).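 Note: blocks dimerization of HCV core protein measured by TR-FRET between tagged core106 pairs.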 The arrangement: species or system Hepacivirus hominis. A general note: TR-FRET usually uses a lanthanide donor and a delayed reading to cut background.
For assay [3], the target named is Peroxisome proliferator-activated receptor gamma/Nuclear receptor coactivator 1 (Homo sapiens, UniProt P37231). In words: TR-FRET dose response biochemical High Throughput Screening assay for agonists of the steroid receptor coactivator 1 (SRC-1) recruitment by the peroxisome proliferator-activated receptor gamma (PPAR gamma): non-selective agonists. [Related pubchem assays (depositor defined):AID1300, AID1808, AID504735, AID631]. Type of assay: protein assay.

The target of assay [4] is Induced myeloid leukemia cell differentiation protein Mcl-1 (Homo sapiens, UniProt Q07820). It is filed as functional.
The target of assay [5] is T2, Voltage-gated N-type calcium channel alpha-1B subunit/Amyloid beta A4 precursor protein-binding family A member 1 (Homo sapiens, UniProt Q00975+Q02410). Type of assay: protein assay.
T2 sequence (Q00975 whole entry): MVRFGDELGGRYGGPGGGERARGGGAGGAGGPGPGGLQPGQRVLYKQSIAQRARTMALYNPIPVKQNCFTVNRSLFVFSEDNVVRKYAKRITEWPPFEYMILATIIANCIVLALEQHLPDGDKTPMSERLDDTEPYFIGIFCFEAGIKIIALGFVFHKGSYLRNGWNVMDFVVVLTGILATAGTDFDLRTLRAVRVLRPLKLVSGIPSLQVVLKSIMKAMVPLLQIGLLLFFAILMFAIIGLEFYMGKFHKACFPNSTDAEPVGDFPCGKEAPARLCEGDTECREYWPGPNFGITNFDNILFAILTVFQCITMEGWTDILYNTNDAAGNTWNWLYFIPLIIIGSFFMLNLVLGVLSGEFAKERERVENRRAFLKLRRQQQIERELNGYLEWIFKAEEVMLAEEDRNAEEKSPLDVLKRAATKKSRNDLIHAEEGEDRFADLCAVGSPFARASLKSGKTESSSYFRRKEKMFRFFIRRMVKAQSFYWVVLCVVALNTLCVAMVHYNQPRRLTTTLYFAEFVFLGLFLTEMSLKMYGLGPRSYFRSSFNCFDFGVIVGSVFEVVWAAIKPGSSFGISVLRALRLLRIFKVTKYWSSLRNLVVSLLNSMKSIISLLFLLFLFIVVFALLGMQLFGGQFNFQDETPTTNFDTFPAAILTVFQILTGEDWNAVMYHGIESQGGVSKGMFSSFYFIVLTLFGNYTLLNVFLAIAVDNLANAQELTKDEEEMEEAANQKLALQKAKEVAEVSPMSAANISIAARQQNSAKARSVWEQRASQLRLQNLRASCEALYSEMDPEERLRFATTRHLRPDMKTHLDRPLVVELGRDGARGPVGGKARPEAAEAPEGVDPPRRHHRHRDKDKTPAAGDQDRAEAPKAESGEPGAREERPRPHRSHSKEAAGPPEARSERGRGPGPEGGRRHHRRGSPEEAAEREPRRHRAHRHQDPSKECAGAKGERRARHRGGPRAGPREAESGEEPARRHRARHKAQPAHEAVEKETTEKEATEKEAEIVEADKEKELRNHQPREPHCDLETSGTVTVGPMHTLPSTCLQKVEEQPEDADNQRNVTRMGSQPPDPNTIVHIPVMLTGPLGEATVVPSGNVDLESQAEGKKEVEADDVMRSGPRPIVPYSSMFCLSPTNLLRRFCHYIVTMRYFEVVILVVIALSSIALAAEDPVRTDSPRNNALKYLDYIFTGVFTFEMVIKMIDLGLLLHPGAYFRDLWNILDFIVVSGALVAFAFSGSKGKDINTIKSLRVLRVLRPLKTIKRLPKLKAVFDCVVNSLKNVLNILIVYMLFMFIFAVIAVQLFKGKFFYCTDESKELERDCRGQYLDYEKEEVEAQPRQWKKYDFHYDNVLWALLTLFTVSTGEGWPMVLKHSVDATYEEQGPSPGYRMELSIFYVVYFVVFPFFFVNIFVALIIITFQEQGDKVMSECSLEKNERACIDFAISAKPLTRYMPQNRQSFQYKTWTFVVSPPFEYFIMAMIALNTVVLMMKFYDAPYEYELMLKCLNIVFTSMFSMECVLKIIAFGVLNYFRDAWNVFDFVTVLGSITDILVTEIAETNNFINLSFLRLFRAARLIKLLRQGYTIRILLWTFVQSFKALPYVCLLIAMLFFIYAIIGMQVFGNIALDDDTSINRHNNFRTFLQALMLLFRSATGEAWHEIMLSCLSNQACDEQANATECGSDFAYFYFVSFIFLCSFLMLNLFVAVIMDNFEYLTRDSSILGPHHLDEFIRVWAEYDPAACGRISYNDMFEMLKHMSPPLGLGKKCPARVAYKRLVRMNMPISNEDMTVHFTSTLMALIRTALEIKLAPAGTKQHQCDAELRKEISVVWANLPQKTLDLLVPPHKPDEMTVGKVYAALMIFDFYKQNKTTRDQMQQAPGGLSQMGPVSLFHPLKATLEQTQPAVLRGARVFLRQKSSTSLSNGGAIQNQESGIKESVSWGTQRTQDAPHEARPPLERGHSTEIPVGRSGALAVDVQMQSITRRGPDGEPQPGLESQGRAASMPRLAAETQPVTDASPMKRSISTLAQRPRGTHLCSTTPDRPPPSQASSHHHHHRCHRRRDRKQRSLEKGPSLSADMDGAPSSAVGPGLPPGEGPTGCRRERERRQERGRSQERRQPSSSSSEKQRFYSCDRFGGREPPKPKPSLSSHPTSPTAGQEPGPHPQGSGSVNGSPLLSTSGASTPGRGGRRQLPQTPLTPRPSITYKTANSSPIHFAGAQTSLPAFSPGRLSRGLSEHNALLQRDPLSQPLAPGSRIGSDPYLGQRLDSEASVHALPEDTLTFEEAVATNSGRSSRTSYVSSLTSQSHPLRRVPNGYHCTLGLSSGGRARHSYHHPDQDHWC
T2 sequence (Q02410 whole entry): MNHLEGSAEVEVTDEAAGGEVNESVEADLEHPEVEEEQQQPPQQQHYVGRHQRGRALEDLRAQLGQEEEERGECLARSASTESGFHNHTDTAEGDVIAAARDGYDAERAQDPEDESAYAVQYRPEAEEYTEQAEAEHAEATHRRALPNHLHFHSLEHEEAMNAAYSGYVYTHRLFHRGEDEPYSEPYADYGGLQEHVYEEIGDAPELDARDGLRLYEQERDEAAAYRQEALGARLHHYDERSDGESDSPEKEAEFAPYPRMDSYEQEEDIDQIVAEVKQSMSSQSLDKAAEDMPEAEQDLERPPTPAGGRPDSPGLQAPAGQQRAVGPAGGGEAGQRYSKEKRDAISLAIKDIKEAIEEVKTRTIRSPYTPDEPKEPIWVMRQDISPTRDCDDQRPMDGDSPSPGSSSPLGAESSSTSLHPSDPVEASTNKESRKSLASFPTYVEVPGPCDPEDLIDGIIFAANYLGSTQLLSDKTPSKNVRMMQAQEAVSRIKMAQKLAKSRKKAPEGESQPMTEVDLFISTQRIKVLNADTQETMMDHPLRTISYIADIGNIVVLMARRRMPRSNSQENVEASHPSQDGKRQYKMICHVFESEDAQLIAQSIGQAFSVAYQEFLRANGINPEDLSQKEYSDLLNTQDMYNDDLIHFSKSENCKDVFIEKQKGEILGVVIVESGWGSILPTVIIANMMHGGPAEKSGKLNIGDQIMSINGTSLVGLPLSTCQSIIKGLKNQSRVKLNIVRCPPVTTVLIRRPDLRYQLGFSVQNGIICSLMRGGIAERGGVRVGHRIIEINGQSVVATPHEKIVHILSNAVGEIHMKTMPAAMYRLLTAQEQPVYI
Assay [6] concerns the target Bifunctional protein GlmU (Mycobacterium tuberculosis, UniProt P9WMN3). The assay can be described thus: Inhibitors of Mycobacterial Glucosamine-1-phosphate acetyl transferase (GlmU). Secondary screen. Also noted: species or system Mycobacterium tuberculosis H37Rv.
Assay [7] addresses Eukaryotic translation initiation factor 4E (Mus musculus, UniProt P63073). In words: blockers of eIF4G binding by eIF4E – biochemical, TR-FRET, dose response (AID 855).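 Note: potency for disrupting eIF4E binding to eIF4GI seen as loss of FRET.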 It is filed as functional.
Another assay addresses ORF 73 (Human herpesvirus 8, UniProt O40947). In words: KSHV LANA DNA-binding disruption – biochemical, fluorescence polarization, cherry-picked samples, dose response (AID 504725).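 Note: fluorescence polarization of a labeled DNA duplex reporting LANA DNA binding; potency is for inhibitors that block LANA binding to the DNA.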 The arrangement: species or system Human gammaherpesvirus 8. Background: Polarisation of emitted light reports the rotation of a fluorescent probe.
For assay [8], the target named is Beta-adrenergic receptor kinase 1 (Homo sapiens, UniProt P25098). The assay can be described thus: aptamer displacement from bead-bound GRK2 – biochemical, cherry pick 1, bead flow cytometry, dose response (AID 504500). On the technique in general: A flow cytometer gives signals particle by particle.
For assay [9], the target named is T3, SUMO-activating enzyme (Homo sapiens, UniProt Q9UBT2). In words: blockers of SAE1/SAE2–UBC9 SUMO transfer – biochemical, HTRF, uHTS, primary screen (AID 2006). Type of assay: protein-complex assay.
T3 sequence (Q9UBE0 whole entry): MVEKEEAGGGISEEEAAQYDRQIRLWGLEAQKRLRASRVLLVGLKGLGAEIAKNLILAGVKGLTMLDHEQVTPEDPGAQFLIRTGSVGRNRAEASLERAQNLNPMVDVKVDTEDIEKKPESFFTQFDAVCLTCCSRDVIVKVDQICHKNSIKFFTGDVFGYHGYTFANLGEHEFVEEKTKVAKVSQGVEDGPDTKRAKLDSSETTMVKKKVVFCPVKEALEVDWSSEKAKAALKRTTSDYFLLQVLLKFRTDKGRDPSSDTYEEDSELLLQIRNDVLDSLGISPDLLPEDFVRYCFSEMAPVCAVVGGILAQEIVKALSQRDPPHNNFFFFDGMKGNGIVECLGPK
T3 sequence (Q9UBT2 whole entry): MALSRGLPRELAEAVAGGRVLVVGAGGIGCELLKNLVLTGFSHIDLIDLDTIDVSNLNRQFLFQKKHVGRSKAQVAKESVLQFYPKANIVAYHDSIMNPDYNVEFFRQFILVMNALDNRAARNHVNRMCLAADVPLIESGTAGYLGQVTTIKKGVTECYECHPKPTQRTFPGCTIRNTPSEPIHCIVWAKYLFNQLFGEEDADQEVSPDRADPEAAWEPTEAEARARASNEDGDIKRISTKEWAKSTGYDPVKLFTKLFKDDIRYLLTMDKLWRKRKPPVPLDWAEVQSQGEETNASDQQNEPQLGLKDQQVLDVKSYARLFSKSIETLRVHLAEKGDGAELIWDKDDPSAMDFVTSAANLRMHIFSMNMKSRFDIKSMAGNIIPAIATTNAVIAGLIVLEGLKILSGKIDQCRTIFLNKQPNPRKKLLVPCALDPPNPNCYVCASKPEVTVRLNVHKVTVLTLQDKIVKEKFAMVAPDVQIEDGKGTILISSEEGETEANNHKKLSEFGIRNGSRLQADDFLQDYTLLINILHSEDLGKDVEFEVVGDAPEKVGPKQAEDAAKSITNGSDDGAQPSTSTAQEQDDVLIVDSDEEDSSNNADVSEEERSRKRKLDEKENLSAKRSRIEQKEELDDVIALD
In assay [10] the target is T2, Voltage-gated N-type calcium channel alpha-1B subunit/Amyloid beta A4 precursor protein-binding family A member 1. It is filed as protein assay. The source holds these as a separate data set.
The next assay addresses Large T antigen (Simian virus 40, UniProt P03070). Type of assay: functional, Betapolyomavirus macacae.
In assay [11] the target is T3, SUMO-activating enzyme. In words: blockers of UBC9-mediated SUMO conjugation – biochemical, AlphaScreen, SUMOylation inhibitor project, confirmation (AID 2018). Type of assay: functional.
The target of assay [12] is Mitochondrial peptide methionine sulfoxide reductase (Bos taurus, UniProt P54149). The assay can be described thus: Absorbance-based biochemical high throughput dose response assay for activators of Methionine sulfoxide reductase A (MsrA). Type of assay: functional.
Assay [13] is described as follows: M. tuberculosis growth inhibition, HTS (AID 449762). It is filed as functional.
The next assay can be described thus: cells. Type of assay: functional.
In the next assay the test system is Streptococcus. In words: GAS UMAA2166 growth inhibition – luminescence, BacTiterGlo, counter-screen for streptokinase expression inhibitor project, dose response (AID 1915).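 Note: potency for reduction of bacterial viability or growth.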 Type of assay: functional, organism-based.
Assay [14] addresses E3 ubiquitin-protein ligase Mdm2 (Homo sapiens, UniProt Q00987). In words: MDM2-luc reporter signal enhancers, multi-concentration potency testing, MDM2 ubiquitin-protein ligase inhibitor program, whole-cell format, luminescence detection, 384-well microplate (AID 1394).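 Note: MDM2 E3 inhibitors raise luminescence so EC50 is for signal enhancement.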 It is filed as functional.
A short description of assay [15]: Vero E6 cell cytotoxicity, dose response, cytotoxicity control for non-replicating M. tuberculosis project, secondary assay (AID 492998). Type of assay: functional, VeroE6. The note with it: Vero C1008.
The subject of assay [16] is Streptococcus sp. 'group A'. The assay can be described thus: Streptococcus pyogenes SK(-)GAS viability under kanamycin – luminescence, BacTiterGlo, confirmation, counter-screen for streptokinase expression inhibitor project, dose response (AID 1900). It is filed as functional, organism-based.
The nature of assay [17]: THP-1 cell cytotoxicity, dose response, cytotoxicity control for non-replicating M. tuberculosis project (AID 489025). Type of assay: functional.
For assay [18], the target named is T4, Bcl-2-related protein A1 (Mus musculus, UniProt Q07440).
T4 sequence (Q07440 whole entry): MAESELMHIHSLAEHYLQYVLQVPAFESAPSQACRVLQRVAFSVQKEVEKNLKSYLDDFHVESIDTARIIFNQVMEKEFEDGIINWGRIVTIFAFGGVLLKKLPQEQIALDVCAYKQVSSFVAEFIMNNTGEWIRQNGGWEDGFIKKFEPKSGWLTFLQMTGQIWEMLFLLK
The assay can be described thus: displacement of Bid BH3 peptide from Bfl-1 – biochemical, fluorescence polarization, FITC-Bid, mouse, primary screen (AID 432).

In assay [19] the target is T4, Bcl-2-related protein A1. In words: small-molecule antagonists of Bfl-1/BH3 interaction – biochemical, TR-FRET, mouse Bfl-1, confirmation (AID 621).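 Note: TR-FRET binding of GST-Bfl-1 to FITC-labelled Bid peptide via terbium antibody.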
Another assay deals with Estrogen receptor beta (Homo sapiens, UniProt Q92731).
A further assay addresses Ephrin type-A receptor 4 (Mus musculus, UniProt Q03137). The assay can be described thus: EphA4 ligand-binding antagonists – biochemical, colorimetric, mouse EphA4, primary screen (AID 689). Type of assay: functional.
For assay [20], the target named is Heat shock protein HSP 90-alpha (Homo sapiens, UniProt P07900). The assay can be described thus: Luminescence-based dose response biochemical high throughput screening assay for inhibitors of the Heat Shock Protein 90 (HSP90). [Related pubchem assays: 1831 (Summary AID.), 1846 (Confirmation screen.), 1789 (Primary screen.)].

By EC50 is commonly meant the concentration that produces a half-maximal response. For orientation: IC50 means the concentration that gives 50% inhibition. One may read the AC50 as the concentration giving half of the maximal activity seen. Usually CC50 stands for the concentration at which the toxic effect on the cells reaches its halfway point.

Each structure is given as a SMILES string. Activity calls are given as the source filed them.

Genome polyprotein, sequence (Q2Q167 whole entry): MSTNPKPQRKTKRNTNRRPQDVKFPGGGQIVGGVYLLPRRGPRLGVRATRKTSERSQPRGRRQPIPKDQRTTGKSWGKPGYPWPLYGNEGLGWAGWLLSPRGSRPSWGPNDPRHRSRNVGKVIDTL
Large T antigen, sequence (P03070 whole entry): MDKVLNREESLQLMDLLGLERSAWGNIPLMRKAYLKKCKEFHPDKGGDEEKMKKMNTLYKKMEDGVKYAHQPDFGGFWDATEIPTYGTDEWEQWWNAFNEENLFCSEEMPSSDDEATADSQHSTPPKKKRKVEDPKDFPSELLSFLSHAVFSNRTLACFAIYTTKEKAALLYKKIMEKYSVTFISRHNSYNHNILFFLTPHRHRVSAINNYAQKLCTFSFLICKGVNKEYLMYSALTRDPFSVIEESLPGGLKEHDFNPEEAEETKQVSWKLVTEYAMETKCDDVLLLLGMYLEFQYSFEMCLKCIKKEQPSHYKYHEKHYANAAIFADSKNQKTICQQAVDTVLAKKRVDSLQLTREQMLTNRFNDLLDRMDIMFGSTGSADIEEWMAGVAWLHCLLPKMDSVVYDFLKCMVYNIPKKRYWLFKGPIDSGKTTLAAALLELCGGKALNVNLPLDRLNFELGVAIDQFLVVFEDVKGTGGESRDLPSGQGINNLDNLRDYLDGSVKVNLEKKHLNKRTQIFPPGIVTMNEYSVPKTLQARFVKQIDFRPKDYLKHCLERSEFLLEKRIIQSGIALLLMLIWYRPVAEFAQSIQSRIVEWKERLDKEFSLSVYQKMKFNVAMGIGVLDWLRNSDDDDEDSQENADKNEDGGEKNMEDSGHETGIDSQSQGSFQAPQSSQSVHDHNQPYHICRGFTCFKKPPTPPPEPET

Take `Cc1cc(C(=O)OCC(=O)c2ccc(Br)s2)no1`: the EC50 in [1] is > 79.4 µM (not active); in assay [2], 3.89 µM (active); in assay [3], 137 µM (inactive). In addition, the IC50 is on record as 36.2 µM (not active) against Estrogen receptor and > 49.8 µM (not active) at Genome polyprotein.
Turning to `Cc1ccc(NC(=O)CN2C(=O)N/C(=C/c3cccn3-c3ccc(C(=O)O)cc3)C2=O)cc1`, the IC50 was 0.996 µM (not active) in [4]; 28.9 µM (active) in assay [5]; 29.4 µM (active) in assay [6]; 9.54 µM (active) in assay [7]; 12 µM (active) on SUMO-activating enzyme [9]; 10.5 µM (active) in [10]. The IC50 on Large T antigen is 24.7 µM (active); at SUMO-activating enzyme [11] it was 1.09 µM (active). At ORF 73, the AC50 is 33.9 µM (active). Also, the EC50 in [8] was 1.21 µM (active).
For `Cc1ccc2[nH]c3c(c2c1)CN(C(=O)CN1CCN(c2ccccn2)CC1)CC3`, the EC50 in [12] was > 104 µM (inactive). Further, in assay [13], the IC50 is > 100 µM (active).
For `O=C(Nc1nnc(-c2ccc(Cl)cc2)o1)c1ccccc1Br`, the IC50 in “cells” was 3.74 µM (active). Besides, the values for the EC50 (in the assay with Streptococcus; in assay [14]; in [16]) were 5.91 µM (active), 12.8 µM (not active) and 3.15 µM (active), respectively. Further, the CC50 is 18 µM (active) in assay [15] and 37 µM (active) in assay [17].
Take `CC(C)[C@H]1C(=O)N2CCC[C@H]2[C@]2(O)O[C@](NC(=O)[C@@H]3C=C4c5cccc6[nH]cc(c56)C[C@H]4N(C)C3)(C(C)C)C(=O)N12` [ERGOCORNINE]: the IC50 at Bcl-2-related protein A1 [18] and against Bcl-2-related protein A1 [19] was > 100 µM (not active) in each case.
In the case of `CC(=N)/C(C#N)=C(/O)CSc1nnc(Nc2cccc(C)c2C)s1`, the IC50 at Estrogen receptor beta was 12.3 µM (active).
With `Cc1ccccc1C(=O)c1cccn1CC(=O)NCC1CCCO1` (stereo not drawn), on Ephrin type-A receptor 4, the IC50 is listed as > 100 µM (not active).
For `Cc1nc(NC(=O)c2ccc(F)cc2)sc1C(=O)Nc1ccc2c(c1)CCC2`, the IC50 in [20] was 3.84 µM (active).

For the origin of these results see ChEMBL document CHEMBL1201862, “PubChem BioAssay data set” (2004).
